Test systems include 786-0; EKVX; HOP-92; HT-29; KM12; MDA-MB-435; NCI-H23; NCI-H522; OVCAR-3; OVCAR-8; RPMI-8226; RXF 393; SF-295; SK-MEL-28; SK-MEL-5; SNB-19; SNB-75; SW-620; T47D; UACC-62.
Assay in all cases: inhibition of tumour cell growth, NCI panel, 48 h

The source of these data is ChEMBL document CHEMBL1201862, “PubChem BioAssay data set” (2004).

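Compound exposure: 48 hours, 5 concentrations, 96-well plates. GI50: concentration for 50% inhibition of growth.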 Active and inactive are the calls of the source. Cut-off read from the data, not from the text of the source: active = GI50 up to about 1.1 µM and inactive = higher.

Consider `N#C/C(=C/N1C(=O)/C(=C/c2ccc([N+](=O)[O-])cc2)SC1=S)c1nc2ccccc2s1`, for which the GI50 in the assay on 786-0 is 25.4 µM (inactive); with EKVX, 18.4 µM (inactive); in the assay on HOP-92, 17.5 µM (inactive); in the assay with HT-29, 31.2 µM (inactive); in the assay on KM12, 28.2 µM (inactive); in the assay on MDA-MB-435, 29.5 µM (inactive). Also, the GI50 in the assay with NCI-H23 was 20.7 µM (inactive); in the assay on NCI-H522, 12.6 µM (inactive); with OVCAR-3 it was 3.48 µM (inactive); with OVCAR-8, 37.9 µM (inactive); with RPMI-8226 it was 11.1 µM (inactive); in the assay on RXF 393, 19.3 µM (inactive). Also, the GI50 with SF-295 was 11.3 µM (inactive); in the assay with SK-MEL-28, 30.1 µM (inactive); in the assay with SK-MEL-5, 11.4 µM (inactive); with SNB-19 it was 29.6 µM (inactive); in the assay on SNB-75 it was 25.1 µM (inactive); in the assay with SW-620, 34.8 µM (inactive). Also, the GI50 in the assay on T47D was 8.85 µM (inactive); in the assay on UACC-62, 4.42 µM (inactive).
Regarding `O=C1C(Cl)=C(N2CCN(c3ccccn3)CC2)C(=O)c2ncccc21`, the GI50 with 786-0 is 1.63 µM (inactive); in the assay on EKVX it was 11.9 µM (inactive); with HOP-92, 1.88 µM (inactive); in the assay with HT-29, 3.13 µM (inactive); with KM12, 3.53 µM (inactive); with MDA-MB-435, 1.69 µM (inactive). Moreover, the GI50 was 1.89 µM (inactive) in the assay with NCI-H23; 1.67 µM (inactive) in the assay on NCI-H522; 1.69 µM (inactive) in the assay with OVCAR-3; 1.32 µM (inactive) in the assay with OVCAR-8; 2 µM (inactive) in the assay with RPMI-8226; 2.17 µM (inactive) with RXF 393. The GI50 in the assay on SF-295 is 5.69 µM (inactive); in the assay with SK-MEL-28, 2.24 µM (inactive); with SK-MEL-5, 2 µM (inactive); with SNB-19 it was 12.5 µM (inactive); with SNB-75 it was 6.21 µM (inactive); in the assay on SW-620, 2.03 µM (inactive). The GI50 is 1.81 µM (inactive) in the assay on T47D and 2.45 µM (inactive) with UACC-62.
On to `C[C@H](CCc1nc(C#N)c(N)o1)[C@H]1CC[C@H]2[C@@H]3[C@@H](O)CC4C[C@@H](O)CC[C@]4(C)[C@H]3C[C@@H](O)[C@]12C` (stereo not given in full), for which the GI50 in the assay on 786-0 is 19.2 µM (inactive); in the assay with EKVX, 28.3 µM (inactive); in the assay on HOP-92, 22.2 µM (inactive); in the assay on HT-29, 20.2 µM (inactive); in the assay on KM12, 17.7 µM (inactive); in the assay with MDA-MB-435 it was 22 µM (inactive). For the same compound, the GI50 was 24 µM (inactive) in the assay with NCI-H23; 4.03 µM (inactive) in the assay on NCI-H522; 17.7 µM (inactive) in the assay with OVCAR-3; 12.9 µM (inactive) in the assay on OVCAR-8; 6.75 µM (inactive) in the assay on RPMI-8226; 16 µM (inactive) in the assay with RXF 393. Further, the GI50 in the assay with SF-295 was 22.8 µM (inactive); in the assay on SK-MEL-28, 25.6 µM (inactive); in the assay on SK-MEL-5, 18.9 µM (inactive); in the assay with SNB-19, 23.9 µM (inactive); in the assay with SNB-75 it was 10.3 µM (inactive); with SW-620, 23.5 µM (inactive). In addition, the GI50 in the assay with T47D was 27.5 µM (inactive); with UACC-62 it was 10.7 µM (inactive).
For the compound `O=C(c1ccc(Cl)c(Cl)c1)N(Cc1cccnc1)C(=S)N(Cc1cccnc1)C(=O)c1ccc(Cl)c(Cl)c1`, the GI50 with 786-0 is 20.4 µM (inactive); in the assay with EKVX it was 40.6 µM (inactive); in the assay with HOP-92 it was 36.1 µM (inactive); in the assay on HT-29 it was 24 µM (inactive); in the assay on KM12, 28.1 µM (inactive); in the assay with MDA-MB-435, 62.5 µM (inactive). Moreover, the GI50 in the assay on NCI-H23 is 37.8 µM (inactive); in the assay with NCI-H522 it was 20.9 µM (inactive); in the assay with OVCAR-3, 25.5 µM (inactive); with OVCAR-8, 30.5 µM (inactive); in the assay on RPMI-8226, 5.5 µM (inactive); in the assay on RXF 393, 28.4 µM (inactive). For the same compound, the GI50 with SF-295 is 24.4 µM (inactive); in the assay with SK-MEL-28, 52.5 µM (inactive); in the assay with SK-MEL-5, 27.7 µM (inactive); in the assay on SNB-19, 27.9 µM (inactive); with SNB-75 it was 38.4 µM (inactive); with SW-620, 29.2 µM (inactive). In addition, the results for the GI50 in the assay with T47D and in the assay with UACC-62 were 26.7 µM (inactive) and 50.7 µM (inactive), respectively.
As for `CC1(C)C2C=C(CCN3CCOCC3)CC1C2` (stereo not given), the GI50 in the assay on 786-0 was > 100 µM (inactive); in the assay with EKVX, > 100 µM (inactive); with HOP-92 it was 15.3 µM (inactive); in the assay on HT-29 it was > 100 µM (inactive); in the assay with KM12, > 100 µM (inactive); with MDA-MB-435 it was > 100 µM (inactive). For the same compound, the GI50 with NCI-H23, in the assay with NCI-H522, with OVCAR-3, in the assay with OVCAR-8, in the assay with RPMI-8226 and with RXF 393 was > 100 µM (inactive) in each case. The GI50 is > 100 µM (inactive) in the assay with SF-295; > 100 µM (inactive) in the assay on SK-MEL-28; > 100 µM (inactive) in the assay with SK-MEL-5; > 100 µM (inactive) with SNB-19; 71.3 µM (inactive) with SNB-75; > 100 µM (inactive) with SW-620. Moreover, the GI50 in the assay on T47D and with UACC-62 was > 100 µM (inactive) in each case.
In the case of `C[C@H]1C=C2[C@@H]3CC(C)(C(=O)O)CC[C@]3(C)CC[C@]2(C)[C@]2(C)CC[C@H]3C(C)(C)[C@@H](OC(=O)c4cccc5c(=O)c6ccccc6[nH]c45)CC[C@]3(C)[C@@H]12` (stereo not given in full), the GI50 with 786-0 is > 100 µM (inactive); in the assay on EKVX, > 100 µM (inactive); in the assay with HOP-92, > 100 µM (inactive); with HT-29 it was > 100 µM (inactive); in the assay with KM12, 37.2 µM (inactive); in the assay with MDA-MB-435, 41.8 µM (inactive). Moreover, the GI50 was 44.3 µM (inactive) with NCI-H23; 28.8 µM (inactive) in the assay on NCI-H522; > 100 µM (inactive) with OVCAR-3; 41.7 µM (inactive) with OVCAR-8; 43 µM (inactive) in the assay on RPMI-8226; > 100 µM (inactive) in the assay with RXF 393. The GI50 in the assay on SF-295 was > 100 µM (inactive); with SK-MEL-28, 53.3 µM (inactive); with SK-MEL-5, 34.4 µM (inactive); with SNB-19, > 100 µM (inactive); in the assay on SNB-75, > 100 µM (inactive); with SW-620, > 100 µM (inactive). In addition, the GI50 in the assay on T47D was 26.9 µM (inactive); in the assay on UACC-62, 43.3 µM (inactive).
Take `OC(CCN1CCN(CCOC(c2ccc(F)cc2)c2ccc(F)cc2)CC1)c1ccc(Br)cc1` (stereo not given): the GI50 is 2.68 µM (inactive) in the assay on 786-0; 5.15 µM (inactive) in the assay with EKVX; 4.37 µM (inactive) in the assay with HOP-92; 3.32 µM (inactive) with HT-29; 2.44 µM (inactive) in the assay on KM12; 2.27 µM (inactive) with MDA-MB-435. Also, the GI50 in the assay with NCI-H23 is 6.75 µM (inactive); with NCI-H522 it was 5.74 µM (inactive); in the assay on OVCAR-3, 3.34 µM (inactive); in the assay on OVCAR-8, 2.02 µM (inactive); in the assay with RPMI-8226, 2.67 µM (inactive); with RXF 393, 3.94 µM (inactive). The GI50 with SF-295 is 4.62 µM (inactive); in the assay on SK-MEL-28, 2.69 µM (inactive); with SK-MEL-5, 1.69 µM (inactive); in the assay with SNB-19 it was 7.6 µM (inactive); in the assay with SNB-75 it was 9.77 µM (inactive); in the assay with SW-620 it was 4.67 µM (inactive). Further, the GI50 with T47D is 3.05 µM (inactive); in the assay with UACC-62, 4.06 µM (inactive).
In the case of `CCn1sc2ccccc2c1=O`, the GI50 is 2.34 µM (inactive) in the assay on 786-0; 17.1 µM (inactive) in the assay with EKVX; 10.1 µM (inactive) in the assay with HOP-92; 14.4 µM (inactive) with HT-29; 6.89 µM (inactive) with KM12; 1.99 µM (inactive) in the assay with MDA-MB-435. In addition, the GI50 is 13 µM (inactive) in the assay with NCI-H23; 1.6 µM (inactive) in the assay on NCI-H522; 12.9 µM (inactive) in the assay on OVCAR-3; 9.12 µM (inactive) in the assay with OVCAR-8; 4.23 µM (inactive) in the assay on RPMI-8226; 4.81 µM (inactive) in the assay on RXF 393. Also, the GI50 with SF-295 was 29.1 µM (inactive); in the assay on SK-MEL-28 it was 18.1 µM (inactive); in the assay on SK-MEL-5 it was 9.84 µM (inactive); in the assay with SNB-19 it was 11.3 µM (inactive); with SNB-75, 13.7 µM (inactive); in the assay with SW-620, 6.35 µM (inactive). For the same compound, the GI50 in the assay on T47D is 7.93 µM (inactive); in the assay with UACC-62 it was 13.9 µM (inactive).
Consider `COC(=O)c1c(O)ccc2c1c1cc3ccccc3cc1n2Cc1cc(OC)cc(OC)c1`, for which the GI50 is 3.55 µM (inactive) with 786-0; 6.3 µM (inactive) with EKVX; 11.7 µM (inactive) with HOP-92; 11 µM (inactive) in the assay on HT-29; 0.805 µM (active) in the assay with KM12; 0.321 µM (active) with MDA-MB-435. Moreover, the GI50 is 4.53 µM (inactive) with NCI-H23; 0.194 µM (active) in the assay with NCI-H522; 0.339 µM (active) in the assay with OVCAR-3; 6.38 µM (inactive) with OVCAR-8; 1.96 µM (inactive) in the assay with RPMI-8226; 3.96 µM (inactive) in the assay with RXF 393. Moreover, the GI50 with SF-295 is 1.11 µM (active); with SK-MEL-28 it was 1.66 µM (inactive); in the assay on SK-MEL-5 it was 1.34 µM (inactive); with SNB-19 it was 5.82 µM (inactive); with SNB-75, 2.51 µM (inactive); in the assay on SW-620, 3.61 µM (inactive). Moreover, the GI50 with T47D was 3.06 µM (inactive); in the assay with UACC-62, 3.13 µM (inactive).
As for `Cc1cc(=O)oc2cc(OC(=O)N(CCCl)CCCl)ccc12`, the GI50 was > 100 µM (inactive) with 786-0; > 100 µM (inactive) in the assay on EKVX; 18.2 µM (inactive) in the assay on HOP-92; > 100 µM (inactive) in the assay with HT-29; > 100 µM (inactive) in the assay with KM12; > 100 µM (inactive) with MDA-MB-435. The GI50 is > 100 µM (inactive) with NCI-H23; 79.1 µM (inactive) in the assay with NCI-H522; > 100 µM (inactive) in the assay on OVCAR-3; > 100 µM (inactive) in the assay on OVCAR-8; 61.4 µM (inactive) in the assay on RPMI-8226; > 100 µM (inactive) in the assay on RXF 393. The GI50 with SF-295 is > 100 µM (inactive); in the assay with SK-MEL-28, > 100 µM (inactive); with SK-MEL-5, > 100 µM (inactive); in the assay with SNB-19, > 100 µM (inactive); in the assay with SNB-75 it was 50.7 µM (inactive); in the assay on SW-620, > 100 µM (inactive). Moreover, the GI50 with T47D was 62.4 µM (inactive); in the assay on UACC-62, 29.4 µM (inactive).
